Earlier results as cited in PMC10323144, “Garbage in, garbage out: how reliable training data improved a virtual screening approach against SARS-CoV-2 MPro” (Frontiers in Pharmacology, 2023).

tested on: MPro; settings: compiled from peer-reviewed sources (287 compounds) ref the 18 original articles; cited from earlier work

SMILES	Class (MPro activity class)
COc1ccc(CN=c2[nH]c(N3CCC[C@H]3CO)ncc2C(=O)NCc2ncccn2)cc1Cl	0 (compounds with IC50 > 20 μM, percentage inhibition <80% at 20 µM or 50 μM, or percentage enzyme inhibition <50% at 10 µM were labelled as INACTIVE)
COc1cc(OC)nc(O[C@H](C(=O)O)C(OC)(c2ccccc2)c2ccccc2)n1	0 (compounds with IC50 > 20 μM, percentage inhibition <80% at 20 µM or 50 μM, or percentage enzyme inhibition <50% at 10 µM were labelled as INACTIVE)
O=C(O)CNC(=O)c1ncc(-c2cccc(Cl)c2)cc1O	0 (compounds with IC50 > 20 μM, percentage inhibition <80% at 20 µM or 50 μM, or percentage enzyme inhibition <50% at 10 µM were labelled as INACTIVE)
COc1cc(C2OCC3C(c4ccc(OC5OC(CO)C(O)C(O)C5O)c(OC)c4)OCC23)ccc1O (single isomer, unassigned; (+)) [(+)-Pinoresinol-4-O-β-D-glucopyraside]	0 (compounds with IC50 > 20 μM, percentage inhibition <80% at 20 µM or 50 μM, or percentage enzyme inhibition <50% at 10 µM were labelled as INACTIVE)
N#Cc1ccccc1-c1cc(-c2ccccn2)cn(-c2ccccc2)c1=O [1 (perampanel), perampanel]	0 (compounds with IC50 > 20 μM, percentage inhibition <80% at 20 µM or 50 μM, or percentage enzyme inhibition <50% at 10 µM were labelled as INACTIVE)
O=C(C=Cc1ccc(O)c(O)c1)OC1CC(OC(=O)C=Cc2ccc(O)c(O)c2)(C(=O)O)CC(O)C1O (stereo not shown) [1,3-Dicaffeoylquinic acid]	0 (compounds with IC50 > 20 μM, percentage inhibition <80% at 20 µM or 50 μM, or percentage enzyme inhibition <50% at 10 µM were labelled as INACTIVE)
O=c1cc(-c2ccccc2)oc2ccc(O)c(O)c12 [5,6-Dihydroxyflavone]	0 (compounds with IC50 > 20 μM, percentage inhibition <80% at 20 µM or 50 μM, or percentage enzyme inhibition <50% at 10 µM were labelled as INACTIVE)
COc1cccc2[nH]c(C(=O)NC(CC(C)C)C(=O)NC(CC3CCNC3=O)C(=O)c3nc4ccccc4s3)cc12 (stereo not shown) [5h]	1 (Compounds with IC50 < 10 µM or with a percentage of enzyme inhibition >50% at 10 µM were labelled as ACTIVE)
O=c1cc(-c2ccccc2)oc2cc(O)c(O)cc12 [6,7-Dihydroxyflavone]	0 (compounds with IC50 > 20 μM, percentage inhibition <80% at 20 µM or 50 μM, or percentage enzyme inhibition <50% at 10 µM were labelled as INACTIVE)
O=C(Oc1cncc(Cl)c1)c1cccc2[nH]ccc12 [10_GRL0496]	1 (Compounds with IC50 < 10 µM or with a percentage of enzyme inhibition >50% at 10 µM were labelled as ACTIVE)
O=CC(CC1CCNC1=O)NC(=O)C(Cc1cccc(F)c1)NC(=O)c1cc2ccccc2[nH]1 (stereo not shown) [11b]	1 (Compounds with IC50 < 10 µM or with a percentage of enzyme inhibition >50% at 10 µM were labelled as ACTIVE)
O=C(Nc1ccc(N(Cc2ccsc2)C(=O)Cn2nnc3ccccc32)cc1)C1CC1 [16e (ML300)]	1 (Compounds with IC50 < 10 µM or with a percentage of enzyme inhibition >50% at 10 µM were labelled as ACTIVE)
CNc1ccc(N(Cc2ccsc2)C(=O)Cn2nnc3ccccc32)cc1 [16j]	1 (Compounds with IC50 < 10 µM or with a percentage of enzyme inhibition >50% at 10 µM were labelled as ACTIVE)
O=C(Cn1nnc2ccccc21)N(Cc1ccsc1)c1ccc(-c2ccccc2)cc1 [17a]	1 (Compounds with IC50 < 10 µM or with a percentage of enzyme inhibition >50% at 10 µM were labelled as ACTIVE)
COc1cc(Cl)cc(OC(=O)Nc2cccnc2)c1 [AGN-NEW-891393a6-1]	1 (Compounds with IC50 < 10 µM or with a percentage of enzyme inhibition >50% at 10 µM were labelled as ACTIVE)
O=C1N(Cc2cccc(Cl)c2)CCN1c1nccc2[nH]ncc12 [ALP-POS-91609ae9-3]	1 (Compounds with IC50 < 10 µM or with a percentage of enzyme inhibition >50% at 10 µM were labelled as ACTIVE)
CCC(=O)Nc1ccc(N(Cc2ccsc2)C(=O)Cn2nnc3ccccc32)cc1 [ALP-POS-c59291d4-2]	1 (Compounds with IC50 < 10 µM or with a percentage of enzyme inhibition >50% at 10 µM were labelled as ACTIVE)
CC(C)(C)NC(=O)C(c1cccnc1)N(C(=O)c1ccco1)c1ccc(C(C)(C)C)cc1 (stereo not shown) [ALP-POS-c59291d4-6]	1 (Compounds with IC50 < 10 µM or with a percentage of enzyme inhibition >50% at 10 µM were labelled as ACTIVE)
CN(C)c1ccc(N(Cc2ccsc2)C(=O)Cn2nnc3ccccc32)cc1 [ALP-POS-d2866bdf-1]	1 (Compounds with IC50 < 10 µM or with a percentage of enzyme inhibition >50% at 10 µM were labelled as ACTIVE)
Nc1nc(NC2CC2)c2ncn([C@H]3C=C[C@@H](CO)C3)c2n1 [Abacavir]	0 (compounds with IC50 > 20 μM, percentage inhibition <80% at 20 µM or 50 μM, or percentage enzyme inhibition <50% at 10 µM were labelled as INACTIVE)

SMILES	Class (MPro activity class)
C[C@@H]1O[C@@H](O[C@@H]2[C@@H](O)[C@H](OCCc3ccc(O)c(O)c3)O[C@H](CO)[C@H]2OC(=O)/C=C/c2ccc(O)c(O)c2)[C@H](O)[C@H](O)[C@H]1O [Acteoside]	0 (compounds with IC50 > 20 μM, percentage inhibition <80% at 20 µM or 50 μM, or percentage enzyme inhibition <50% at 10 µM were labelled as INACTIVE)
Cn1c(=O)cc(N2CCC[C@@H](N)C2)n(Cc2ccccc2C#N)c1=O [Alogliptin]	0 (compounds with IC50 > 20 μM, percentage inhibition <80% at 20 µM or 50 μM, or percentage enzyme inhibition <50% at 10 µM were labelled as INACTIVE)
CCOC(=O)[C@H]1O[C@@H]1C(=O)N[C@@H](CC(C)C)C(=O)NCCC(C)C [Aloxistatin]	0 (compounds with IC50 > 20 μM, percentage inhibition <80% at 20 µM or 50 μM, or percentage enzyme inhibition <50% at 10 µM were labelled as INACTIVE)
Cc1c(-c2ccnn2C)cc(C(=O)NCc2ccc(S(C)(=O)=O)cn2)c(=O)n1-c1cccc(C(F)(F)F)c1 [Alvestat]	0 (compounds with IC50 > 20 μM, percentage inhibition <80% at 20 µM or 50 μM, or percentage enzyme inhibition <50% at 10 µM were labelled as INACTIVE)
CC(C)CN(C[C@@H](O)[C@H](Cc1ccccc1)NC(=O)O[C@H]1CCOC1)S(=O)(=O)c1ccc(N)cc1 [Amprenavir]	0 (compounds with IC50 > 20 μM, percentage inhibition <80% at 20 µM or 50 μM, or percentage enzyme inhibition <50% at 10 µM were labelled as INACTIVE)
CC(C)(C#N)c1cc(Cn2cncn2)cc(C(C)(C)C#N)c1 [Anastrozole]	0 (compounds with IC50 > 20 μM, percentage inhibition <80% at 20 µM or 50 μM, or percentage enzyme inhibition <50% at 10 µM were labelled as INACTIVE)
C=C[C@@H]1C[C@]1(NC(=O)[C@@H]1C[C@@H](Oc2ncc(OC)c3ccc(Cl)cc23)CN1C(=O)[C@@H](NC(=O)OC(C)(C)C)C(C)(C)C)C(=O)NS(=O)(=O)C1CC1 [Asunaprevir]	0 (compounds with IC50 > 20 μM, percentage inhibition <80% at 20 µM or 50 μM, or percentage enzyme inhibition <50% at 10 µM were labelled as INACTIVE)
COC(=O)NC(C(=O)NC(Cc1ccccc1)C(O)CN(Cc1ccc(-c2ccccn2)cc1)NC(=O)C(NC(=O)OC)C(C)(C)C)C(C)(C)C (stereo not shown) [Atanazavir]	0 (compounds with IC50 > 20 μM, percentage inhibition <80% at 20 µM or 50 μM, or percentage enzyme inhibition <50% at 10 µM were labelled as INACTIVE)
CC(C)c1c(C(=O)Nc2ccccc2)c(-c2ccccc2)c(-c2ccc(F)cc2)n1CC[C@@H](O)C[C@@H](O)CC(=O)O [Atorvastatin]	0 (compounds with IC50 > 20 μM, percentage inhibition <80% at 20 µM or 50 μM, or percentage enzyme inhibition <50% at 10 µM were labelled as INACTIVE)
NC(=O)[C@@H](CCC(F)(F)F)N(Cc1ccc(-c2ncon2)cc1F)S(=O)(=O)c1ccc(Cl)cc1 [Avagacestat]	0 (compounds with IC50 > 20 μM, percentage inhibition <80% at 20 µM or 50 μM, or percentage enzyme inhibition <50% at 10 µM were labelled as INACTIVE)
O=C(c1cc(=O)[nH]c2ccccc12)N1CCN(Cc2ccccc2)CC1 [BEN-DND-7e92b6ca-10]	1 (Compounds with IC50 < 10 µM or with a percentage of enzyme inhibition >50% at 10 µM were labelled as ACTIVE)
COc1cccc(N2CCN(C(=O)c3cc(=O)[nH]c4ccccc34)CC2)c1 [BEN-DND-7e92b6ca-12]	1 (Compounds with IC50 < 10 µM or with a percentage of enzyme inhibition >50% at 10 µM were labelled as ACTIVE)
O=C(Cn1ccnc1[N+](=O)[O-])NCc1ccccc1 [BENZNIDAZOLE]	0 (compounds with IC50 > 20 μM, percentage inhibition <80% at 20 µM or 50 μM, or percentage enzyme inhibition <50% at 10 µM were labelled as INACTIVE)
COc1ccc(NC(=O)c2ccc(C(=N)N(C)C)cc2)c(C(=O)Nc2ccc(Cl)cn2)c1 [BETRIXABAN]	0 (compounds with IC50 > 20 μM, percentage inhibition <80% at 20 µM or 50 μM, or percentage enzyme inhibition <50% at 10 µM were labelled as INACTIVE)
Nc1cc(C(F)(F)F)c(-c2nc(N3CCOCC3)nc(N3CCOCC3)n2)cn1 [BIMIRALISIB]	0 (compounds with IC50 > 20 μM, percentage inhibition <80% at 20 µM or 50 μM, or percentage enzyme inhibition <50% at 10 µM were labelled as INACTIVE)
O=c1cc(-c2ccccc2)oc2cc(O)c(O)c(O)c12 [Baicalein]	1 (Compounds with IC50 < 10 µM or with a percentage of enzyme inhibition >50% at 10 µM were labelled as ACTIVE)
O=C(O)[C@H]1O[C@@H](Oc2cc3oc(-c4ccccc4)cc(=O)c3c(O)c2O)[C@H](O)[C@@H](O)[C@@H]1O [Baicalin]	0 (compounds with IC50 > 20 μM, percentage inhibition <80% at 20 µM or 50 μM, or percentage enzyme inhibition <50% at 10 µM were labelled as INACTIVE)
CNC(=O)[C@H](Cc1ccccc1)NC(=O)[C@H](CC(C)C)[C@H](CSc1cccs1)C(=O)NO [Batimastat]	0 (compounds with IC50 > 20 μM, percentage inhibition <80% at 20 µM or 50 μM, or percentage enzyme inhibition <50% at 10 µM were labelled as INACTIVE)
CC(O)(CS(=O)(=O)c1ccc(F)cc1)C(=O)Nc1ccc(C#N)c(C(F)(F)F)c1 (stereo not shown) [Bicalutamide]	0 (compounds with IC50 > 20 μM, percentage inhibition <80% at 20 µM or 50 μM, or percentage enzyme inhibition <50% at 10 µM were labelled as INACTIVE)
CC1=C(C(=O)O)N2C(=O)[C@@H](NC(=O)[C@H](N)c3ccccc3)[C@H]2SC1 [CEPHALEXIN]	0 (compounds with IC50 > 20 μM, percentage inhibition <80% at 20 µM or 50 μM, or percentage enzyme inhibition <50% at 10 µM were labelled as INACTIVE)
